Structures are written as SMILES.

The target of the experiment is T1, human GPR40 (Homo sapiens, UniProt O14842).
T1 construct: expressed in transfected cells
T1 sequence (O14842 whole entry): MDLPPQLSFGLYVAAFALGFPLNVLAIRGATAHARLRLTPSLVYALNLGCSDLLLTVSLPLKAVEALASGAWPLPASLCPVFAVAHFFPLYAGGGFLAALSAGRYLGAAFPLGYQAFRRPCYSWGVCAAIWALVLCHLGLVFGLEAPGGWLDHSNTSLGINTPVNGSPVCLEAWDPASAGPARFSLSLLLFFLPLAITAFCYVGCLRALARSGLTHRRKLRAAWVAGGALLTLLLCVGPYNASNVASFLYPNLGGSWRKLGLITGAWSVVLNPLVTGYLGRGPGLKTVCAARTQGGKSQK
Briefly: Inositol Phosphate Turnover (IP1) Assay. Format: cell-based. To be noted: HEK cells stably expressing human GPR40, 7500 cells per well, CisBio IP-One kit. The method, then:
Human GPR40 stable cell-lines were generated in HEK cells. The expression plasmids were transfected using lipofectamine (Life Technologies) following manufacturer's instructions. Stable cell-lines were generated following drug selection and single cell cloning.
The assay was performed in 384-well format. HEK cells stably expressing human GPR40 were plated at 7500 cells per well in growth medium (DMEM/10% fetal calf serum). Cell plates were then incubated 16 hours at 37 degrees in a 5% CO2 incubator. Measurement of Inositol Phosphate Turnover (IP1) was performed using the CisBio IP-One kit (Part number 62IPAPEB). After the 16 hour incubation, the growth media was removed by centrifugation using the BlueWasher (AusWasher GUI Ver. v1.0.1.8) Protocol #21-“Light Dry” and 10 ul of stimulation buffer (prepared as described in the kit) was added to each well. In a separate plate, compounds were diluted in DMSO (200-fold over the final concentration in the assay well) and 50 nl was acoustically transferred to the appropriate well in the assay cell plate. The plates were then incubated for 60 minutes at 37 degrees in a 5% CO2 incubator. 10 ul of detection buffer (also prepared as described in the IP-One kit) was added to each well and the plates were incubated at room temperature for 60 minutes in the dark. The plates were then read in a Perkin Elmer EnVision or equivalent reader able to measure FRET. Fluorescent ratio of emission at 665 and 620 nm was then converted to IP1 concentration by back calculating from an IP1 standard curve prepared at the time of the assay. Data was normalized to % activity using a reference compound and EC50s determined using a standard 4-parameter fit.
As usually defined, the EC50 is the concentration needed to bring the measured effect to its halfway point. A lower EC50 goes with an effect from little substance. The compound `CC(c1cc(Cl)ccc1C(F)(F)F)N1C[C@H]2CC1CC2C1CCc2ccc([C@H](C3CC3)[C@H](C)C(=O)O)cc2O1` (single isomer, unassigned) [Example 36, (2S,3R)-3-((S or R)-2-((R or S, R or S)-2-(1-(5-chloro-2-(trifluoromethyl)-phenyl)-ethyl)-2-azabicyclo[2.2.1]heptan-5-yl)chroman-7-yl)-3-cyclopropyl-2-methylpropanoic Acid] had an EC50 of 12.3 nM. `CC(c1cc(F)ccc1OC(F)(F)F)N1CC2CC1CC2C1CCc2ccc([C@H](C3CC3)[C@H](C)C(=O)O)cc2O1` (single isomer, unassigned) [Example 37, (2S,3R)-3-cyclopropyl-3-((R or S)-2-((R or S,R or S)-2-((RS)-1-(5-fluoro-2-(trifluoro-methoxy)-phenyl)ethyl)-2-aza-bicyclo[2.2.1]heptan-5-yl)-chroman-7-yl)-2-methyl-propanoic acid] showed an EC50 of 71.4 nM. For `C[C@H](C(=O)O)[C@H](c1ccc2c(c1)OC(C13CCN([C@H](C)c4cc(F)ccc4OC(F)(F)F)C(C1)C3)CC2)C1CC1` (single isomer, unassigned) [Example 43] the value was 60.6 nM; for `C[C@H](C(=O)O)[C@H](c1ccc2c(c1)OC(C13CCN([C@H](C)c4cc(F)ccc4OC(F)(F)F)C(C1)C3)CC2)C1CC1` (single isomer, unassigned) [Example 44], 2.14 nM. The same measure for `C[C@H](C(=O)O)[C@H](c1ccc2c(c1)OC(C1C3COCC1CN([C@H](C)c1cc(C(F)(F)F)ccc1C(F)(F)F)C3)CC2)C1CC1` (stereo partly drawn) [Example 3, (2S,3R)-3-(2-((1R,5S)-7-((R)-1-(2,5-bis(trifluoromethyl)phenyl)ethyl)-3-oxa-7-azabicyclo[3.3.1]nonan-9-yl)chroman-7-yl)-3-cyclopropyl-2-methylpropanoic acid]: 20.3 nM. In turn, `C[C@H](C(=O)O)[C@H](c1ccc2c(c1)OC(C1C3COCC1CN([C@H](C)c1cc(C(F)(F)F)ccc1C(F)(F)F)C3)CC2)C1CC1` (stereo partly drawn) [Example 4, (2S,3R)-3-(2-((1R,5S)-7-((R)-1-(2,5-bis(trifluoromethyl)phenyl)ethyl)-3-oxa-7-azabicyclo[3.3.1]nonan-9-yl)chroman-7-yl)-3-cyclopropyl-2-methylpropanoic acid] displayed an EC50 of 36.6 nM.

The compound `C[C@H](C(=O)O)[C@H](c1ccc2c(c1)OC(C1C3COCC1CN([C@@H](C)c1cc(C(F)(F)F)ccc1C(F)(F)F)C3)CC2)C1CC1` (stereo partly drawn) [Example 5, (2S,3R)-3-(2-((1R,5S)-7-((S)-1-(2,5-bis(trifluoro-methyl)phenyl)ethyl)-3-oxa-7-azabicyclo[3.3.1]-nonan-9-yl)chroman-7-yl)-3-cyclopropyl-2-methyl-propanoic acid] returned an EC50 of 33.8 nM. The same measure for `C[C@H](C(=O)O)[C@H](c1ccc2c(c1)OC(C1C3COCC1CN([C@@H](C)c1cc(C(F)(F)F)ccc1C(F)(F)F)C3)CC2)C1CC1` (stereo partly drawn) [Example 6, (2S,3R)-3-(2-((1R,5S)-7-((S)-1-(2,5-bis(trifluoro-methyl)phenyl)ethyl)-3-oxa-7-azabicyclo[3.3.1]-nonan-9-yl)chroman-7-yl)-3-cyclopropyl-2-methyl-propanoic acid]: 21.5 nM; for `C[C@H](C(=O)O)[C@H](c1ccc2c(c1)OC(C1CC3CCC(C1)N3[C@@H](C)c1cc(C(F)(F)F)ccc1C(F)(F)F)CC2)C1CC1` (stereo partly drawn) [Example 13, (2S,3R)-3-(2-((1R5S)-8-((S)-1-(2,5-bis(trifluoromethyl)phenyl)ethyl)-8-azabicyclo[3.2.1]octan-3-yl)chroman-7-yl)-3-cyclopropyl-2-methylpropanoic Acid]: 11.9 nM; for `C[C@H](C(=O)O)[C@H](c1ccc2c(c1)OC(C1CC3CCC(C1)N3[C@H](C)c1cc(C(F)(F)F)ccc1C(F)(F)F)CC2)C1CC1` (stereo partly drawn) [Example 14, (2S,3R)-3-(2-((1R,5S)-8-((R)-1-(2,5-bis(trifluoro-methyl)phenyl)ethyl)-8-azabicyclo[3.2.1]octan-3-yl)chroman-7-yl)-3-cyclopropyl-2-methyl-propanoic acid]: 11.1 nM. Regarding `C[C@H](C(=O)O)[C@H](c1ccc2c(c1)OC(C1CC3CCC(C1)N3[C@H](C)c1cc(F)ccc1C(F)(F)F)CC2)C1CC1` (stereo partly drawn) [Example 15, (2S,3R)-3-cyclopropyl-3-(2-((1R,5S)-8-((R)-1-(5-fluoro-2-(trifluoromethyl)-phenyl)ethyl)-8-aza-bicyclo[3.2.1]octan-3-yl)chroman-7-yl)-2-methylpropanoic acid], a half-maximal response (EC50) required 17.5 nM.

`C[C@H](C(=O)O)[C@H](c1ccc2c(c1)OC(C1C[C@@H]3C[C@@H]1CN3[C@@H](C)c1cc(C(F)(F)F)ccc1C(F)(F)F)CC2)C1CC1` (stereo partly drawn) [Example 16, (2S,3R)-3-(2-((1S,4S)-2-((S)-1-(2,5-bis(trifluoromethyl)phenyl)ethyl)-2-aza-bicyclo-[2.2.1]heptan-5-yl)chroman-7-yl)-3-cyclopropyl-2-methylpropanoic Acid] came in with an EC50 of 1.28 nM. For `C[C@H](C(=O)O)[C@H](c1ccc2c(c1)OC(C1CC3CC1CN3[C@H](C)c1cc(C(F)(F)F)ccc1C(F)(F)F)CC2)C1CC1` (stereo partly drawn) [Example 17, (2S,3R)-3-(2-((1S,4S)-2-((R)-1-(2,5-bis(trifluoromethyl)-phenyl)ethyl)-2-azabicyclo-[2.2.1]heptan-5-yl)chroman-7-yl)-3-cyclopropyl-2-methyl-propanic acid] the value was 0.688 nM. In the case of `C[C@H](C(=O)O)[C@H](c1ccc2c(c1)OC(C1CC3CC1CN3[C@@H](C)c1cc(F)ccc1C(F)(F)F)CC2)C1CC1` (stereo partly drawn) [Example 18, (2S,3R)-3-cyclopropyl-3-(2-((1S,4S)-2-((S)-1-(5-fluoro-2-(trifluoromethyl)phenyl)ethyl)-2-azabicyclo[2.2.1]heptan-5-yl)chroman-7-yl)-2-methyl-propanoic acid], the response was half-maximal at 4.2 nM (EC50). The same measure for `C[C@H](C(=O)O)[C@H](c1ccc2c(c1)OC(C1CC3CC1CN3[C@@H](C)c1cc(F)ccc1C(F)(F)F)CC2)C1CC1` (stereo partly drawn) [Example 19, (2S,3R)-3-cyclopropyl-3-(2-((1S,4S)-2-((S)-1-(5-fluoro-2-(trifluoromethyl)phenyl)ethyl)-2-azabicyclo[2.2.1]heptan-5-yl)chroman-7-yl)-2-methyl-propanic acid]: 2.62 nM; for `C[C@H](C(=O)O)[C@H](c1ccc2c(c1)OC(C1CC3C[C@@H]1CN3[C@@H](C)c1cc(F)ccc1C(F)(F)F)CC2)C1CC1` (stereo partly drawn) [Example 38, (2S,3R)-3-cyclopropyl-3-(2-((4S)-2-((S)-1-(5-fluoro-2-(trifluoromethyl)phenyl)ethyl)-2-azabicyclo[2.2.1]heptan-5-yl)chroman-7-yl)-2-methyl-propanoic acid]: 10.6 nM; for `C[C@H](C(=O)O)[C@H](c1ccc2c(c1)OC(C13CCN([C@@H](C)c4cc(F)ccc4OC(F)(F)F)C(C1)C3)CC2)C1CC1` (some centres unmarked) [Example 42]: 2.09 nM.

The values above are taken from patent US11072602B2, “Antidiabetic heterocyclic compounds” (Merck Sharp & Dohme Corp., priority 2016, dated 2021).
